Source: patent US9809562B2, “NAT10 modulators for treating or preventing laminopathies, aging and cancer” (CAMBRIDGE ENTERPRISE LIMITED, priority 2014, dated 2017)
Structures can show the parent of a compound that is named as a salt.

Assays:
[1] = tested on: farnesyltransferase activity (pre-Lamin A cleavage and maturation); test: Lamin A processing by western blotting; assay type: cell-based, human
Description: (§1) The following KAT and KDAC inhibitors were used in the nuclear shape rescue screen, incubating cells with the molecules for 16 hours: trichostatin A (1 μM), sodium butyrate (5 mM), tubacin (10 μM), SAHA (5 μM), curcumin (10 μM), garcinol (50 μM), anacardic acid (1 μM), MB-3 (5 μM), 4-(4-chlorophenyl)-2-(2-cyclopentylidenehydrazinyl)thiazole (Compound 2) (50 μM), 4-(4-chlorophenyl)-2-(2-cyclopentylidene-1-(prop-2-yn-1-yl)hydrazinyl)thiazole (Compound 3) (50 μM) and cyclopentylidene-[4-(4-cyanophenyl)thiazol-2-yl)hydrazine (Compound 1) (Remodelin) (10 to 50 μM). For HGPS cellular fitness assays, Remodelin was incubated at 1 μM for 1 to 10 days, renewing the medium every 3 days. For long-term senescence assay, cells were kept and passaged in medium containing 1 μM Remodelin or DMSO only for 12 population doublings. Senescence was assessed after 8 days of Remodelin treatment when cells were at Population Doubling 12, and then after several weeks of Remodelin treatment, when cells reached Population Doubling 24 using the Senescence β-Galactosidase Staining Kit #9860 from Cell Signaling. […]
Total cell extracts were prepared by scraping cells in SDS lysis buffer (4% SDS, 20% glycerol, and 120 mM Tris-HCl, pH 6.8), boiling for 5 minutes at 95° C., followed by 10 strokes through a 25-gauge needle. […] Detection and quantification was performed with an imager (Odyssey; LI-COR Biosciences).

[2] = tested on: HGPS primary fibroblasts (AG11498 and AG06267); test: Misshapen nuclei in HGPS cells; assay type: cell-based, human; conditions: HGPS patient fibroblasts
Description: U2OS and SaOS-2 osteosarcoma cells, HeLa cervical cancer cells, A431 melanoma cells, NCI-SNU5 gastric cancer cells, MRC-5 lung fibroblast cells and Werner syndrome patient-derived SV40 fibroblast cells were grown in Dulbecco's modified Eagle medium (DMEM, Sigma-Aldrich) supplemented with 10% fetal bovine serum (BioSera), 2 mM L-glutamine, 100 U per ml penicillin, 100 μg ml^−1 streptomycin. Normal skin primary fibroblasts GM03440 and Hutchinson Gilford Progeria Syndrome (HGPS) skin primary fibroblasts AG11498 and AG06297 were purchased from Coriell Cell Repositories and used between passage number 9-12 and 20-23 respectively. Cells were grown in DMEM supplemented as above. RPE-1 retinal pigment epithelial cells were grown in DMEM and Ham F12 mix medium supplemented as above and buffered with sodium bicarbonate. HMV-II melanoma cell line, 22RV1 prostate carcinoma cells, NCI-H82 and NCI-H69 lung carcinoma cells, and NCI-N87 gastric cancer cell lines were grown in RPMI-1640 medium (Sigma-Aldrich) supplemented as above. Stably transfected U2OS cells were maintained in standard medium containing 1 mg ml^−1 G418 (Invitrogen). The siRNA duplexes were obtained from Life Sciences: Lamin A/C stealth RNAi: […] (SEQ ID NO: 1) and […] (SEQ ID NO: 2), NAT10 stealth RNAi: […] (SEQ ID NO: 3), and as control siRNA, stealth RNAi negative control duplexes were used. Plasmid DNA and siRNA transfections were carried out using Lipofectamine 2000 and Lipofectamine RNAiMax (Life Sciences) respectively, following the manufacturer's instructions. Cells were analysed 48 to 72 hours after transfection.
as §1, with “Signaling. Nocodazole, colchicine and latrunculin A (Sigma-Aldrich) were used at 200 ng/ml, 1 μg/ml and 1 μM respectively.” for “Signaling.”

[3] = tested on: cancer cell lines displaying reduced Lamin A/C expression; test: Nuclear morphology of cancer cell lines with reduced Lamin A/C expression (DAPI); assay type: cell-based, human
Excerpt: FIG. 2: Small molecule Compound 2 rescues nuclear shape defects in various Lamin A/C depleted cells. A) and B) Nuclear shape visualization by DAPI staining of HeLa (A) or RPE-1 (B) cells depleted for Lamin A/C (siLMNA) and treated with various KATi. Scale bars: 50 μm. C) and D) Cell Profiler quantification of nuclear circularity of HeLa (C) or RPE-1 (D) cells from DAPI staining as shown in A) and B) (means of three independent experiments with n>252±s.d). E) Cell cycle profile analysed by flow cytometry. PI: propidium iodide. F) Analysis of Lamin A/C expression levels in indicated cancer cell lines. Bottom panel: Image J quantification of Lamin A/C expression in cancer cells relative to normal RPE-1 cells. G) Representative pictures of DAPI staining showing nuclear shape improvement in low Lamin A/C expressing cancer cells after treatment with Compound 2. Scale bars: 20 μm.
U2OS and SaOS-2 osteosarcoma cells, HeLa cervical cancer cells, A431 melanoma cells, NCI-SNU5 gastric cancer cells, MRC-5 lung fibroblast cells and Werner syndrome patient-derived SV40 fibroblast cells were grown in Dulbecco's modified Eagle medium (DMEM, Sigma-Aldrich) supplemented with 10% fetal bovine serum (BioSera), 2 mM L-glutamine, 100 U per ml penicillin, 100 μg ml^−1 streptomycin. […] Cells were analysed 48 to 72 hours after transfection.

[4] = tested on: cells (sub-cellular distribution); test: Fluorescent labelling of clickable molecules (sub-cellular distribution); assay type: cell-based; conditions: 2 hours pre-incubation, Alexa fluor 488 Azide click
Description: Cells were pre-incubated with clickable molecules Compound 3 or Reference Compound A (1-Chloro-4-ethynilbenzene, purchased from Sigma-Aldrich) for 2 hours before being fixed and permeabilised as described above. Click reaction was prepared using Invitrogen Click-iT reagents with Alexa fluor 488 Azide and incubated with fixed cells for 1 hour in the dark. In case of co-labelling with another protein, the click reaction was performed before the antibody incubations.

In the case of `N#Cc1ccc(-c2csc(NN=C3CCCC3)n2)cc1` [Compound 1, 4-(4-Cyanophenyl)-2-(2-cyclopentylidenehydrazinyl)thiazole], the “pre-Lamin A processing” value [1] is reported as “did not block pre-Lamin A cleavage and maturation” and the “misshapen nuclei / nuclear shape of HGPS cells” value [2] is reported as “significantly reduced the number of HGPS cells with misshapen nuclei”.
With `Clc1ccc(-c2csc(NN=C3CCCC3)n2)cc1` [Compound 2, 4-(4-Chlorophenyl)-2-(2-cyclopentylidenehydrazinyl)thiazole Hydrochloride Salt] the “nuclear morphology of cancer cell lines” value [3] was “improved the nuclear morphology of several cancer cell lines”.
For `C#CCN(N=C1CCCC1)c1nc(-c2ccc(Cl)cc2)cs1` [Compound 3, 4-(4-Chlorophenyl)-2-(2-cyclopentylidene-1-(prop-2-yn-1-yl)hydrazinyl)thiazole], the “sub-cellular distribution of fluorescently labelled molecule” value [4] was “predominant accumulation of Compound 3 in nucleoli”.
